Patent US6617313B1, “Glucopyranoside and process of isolation thereof from pterocarpus marsupium pharmaceutical composition containing the same and use thereof” (Council of Scientific and Industrial Research, priority 2002, dated 2003)

Tests used:
[1] = hypoglycaemic / anti-diabetic activity of the isolated compound (no test described); settings: stated without test details
pancreatic beta cells = settings: effect due to regeneration of pancreatic beta cells; claim questioned by Kolb et al and Sheehan et al; cited from earlier work

Row | SMILES | melting point [°C] | hypoglycaemic activity [1] | anti-diabetic activity ([1]; listed as 2,6-dihydroxy-2-(P-hydroxybenzyl)-3(2H)benzofuran-7-C-β-D-glucopyranoside) | anti-diabetic activity ([1]; listed as 2,6-dihydroxy-2-(p-hydroxybenzyl)-3(2H)benzofuran-7-C-β-D-glucopyranoside) | hypoglycemic principle (pancreatic beta cells)
1 | O=C1c2ccc(O)c(C3OC(CO)C(O)C(O)C3O)c2OC1(O)Cc1ccc(O)cc1 [formula 1, 2,6-dihydroxy-2-(P-hydroxybenzyl)-3(2H)benzofuran-7-C-β-D-glucopyranoside] | 157 to 158 | shows hypoglycaemic activity | possesses anti-diabetic activity | antidiabetic activity | –
2 | Oc1cc(O)c2c(c1)O[C@H](c1ccc(O)c(O)c1)[C@H](O)C2 [(−)-epicatechin] | – | – | – | – | active hypoglycemic principle
